Data on 24 compounds can be found in US20240092784A1, “CONDENSED HETEROCYCLIC COMPOUND” (NISSAN CHEMICAL CORPORATION, priority 2020, published 2024).

Counter-ions that a name gives are not always drawn. Like-named read-outs stand apart in the source and are kept apart here.

For the assay, the target named is human SPR (Homo sapiens (Human), UniProt P35270). Kind of assay: Evaluation Example 2: Measurement of human SPR inhibitory activity (seven concentrations, sepiapterin absorbance at 420 nm). Type of assay: biochemical. Summed up: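 Reactions ran 240 min at room temperature in 100 mM Tris-HCl pH 7.5 with 0.01% BSA. They contained tag-cleaved, E. coli-expressed full-length human SPR (diluted to 150 ng/mL), seven compound concentrations from 0.14 to 100 nM, and sepiapterin/NADPH added as a 120 μM/160 μM solution. Inhibition was calculated from sepiapterin absorbance at 420 nm.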

Setting [1] is: Evaluation Example 2, seven concentrations 0.14 nM to 100 nM, 240 minutes at room temperature, read-out: IC50.
Where [2] appears, read: sepiapterin absorbance, Table 41, read-out: concentration at 50% inhibition of human SPR (IC50).

human SPR, sequence (P35270 whole entry): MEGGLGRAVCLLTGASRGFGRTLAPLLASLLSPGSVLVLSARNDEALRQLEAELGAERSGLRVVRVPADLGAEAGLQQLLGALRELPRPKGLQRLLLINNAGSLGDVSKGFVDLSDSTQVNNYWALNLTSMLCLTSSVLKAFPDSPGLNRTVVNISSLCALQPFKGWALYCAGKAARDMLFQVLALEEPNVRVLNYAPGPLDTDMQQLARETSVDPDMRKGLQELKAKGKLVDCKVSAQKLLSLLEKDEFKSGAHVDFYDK

For the compound `CC(C)Cn1c(=O)c(C(=O)NC2CC2)c(O)n2nc(N)c(/C=C/C(=O)N3CCOC[C@@H]3C)c12` [Synthesis Example 417, (S,E)-2-Amino-N-cyclopropyl-7-hydroxy-4-isobutyl-3-(3-(3-methylmorpholino)-3-oxoprop-1-en-1-yl)-5-oxo-4,5-dihydropyrazolo[1,5-a]pyrimidine-6-carboxamide hydrochloride], the IC50 under setting [1] is 0.59 nM.

Consider `CC(C)Cn1c(=O)c(C(=O)NC2CC2)c(O)n2ncc(CNC(=O)C3CCC(F)(F)CC3)c12` [Synthesis Example 263, N-Cyclopropyl-3-((4,4-difluorocyclohexane-1-carboxamido)methyl)-7-hydroxy-4-isobutyl-5-oxo-4,5-dihydropyrazolo[1,5-a]pyrimidine-6-carboxamide], for which the IC50 under setting [1] was determined as 1.22 nM.

On to `Cc1nn2c(O)c(C(=O)NC3CC3)c(=O)n(CC(C)C)c2c1/C=C/C(=O)N1CCCC12CCN(C(=O)OC(C)(C)C)CC2` [Synthesis Example 661, Tert-butyl (E)-1-(3-(6-(cyclopropylcarbamoyl)-7-hydroxy-4-isobutyl-2-methyl-5-oxo-4,5-dihydropyrazolo[1,5-a]pyrimidin-3-yl)acryloyl)-1,8-diazaspiro[4.5]decane-8-carboxylate], for which the IC50 under setting [1] worked out at 2.48 nM.

As for `CC(C)(C)Cn1c(=O)c(C(=O)NC2CC2)c(O)n2nc(Nc3ccnc(C(N)=O)n3)cc12` [Synthesis Example 351, 2-((2-Carbamoylpyrimidin-4-yl)amino)-N-cyclopropyl-7-hydroxy-4-neopentyl-5-oxo-4,5-dihydropyrazolo[1,5-a]pyrimidine-6-carboxamide], the IC50 under setting [1] was 0.9 nM.

Turning to `CC(C)Cn1c(=O)c(C(=O)NC2CC2)c(O)n2ncc(/C=C/C(=O)N3CCN(C4CCC4)CC3)c12` [compound 472, (E)-3-(3-(4-Cyclobutylpiperazin-1-yl)-3-oxoprop-1-en-1-yl)-N-cyclopropyl-7-hydroxy-4-isobutyl-5-oxo-4,5-dihydropyrazolo[1,5-a]pyrimidine-6-carboxamide], the IC50 under setting [1] was found to be 1.12 nM.

Take `Cc1cnc(-c2cc3n(CC(C)(C)C)c(=O)c(C(=O)NC4CC4)c(O)n3n2)cn1` [Synthesis Example 303, N-Cyclopropyl-7-hydroxy-2-(5-methylpyrazin-2-yl)-4-neopentyl-5-oxo-4,5-dihydropyrazolo[1,5-a]pyrimidine-6-carboxamide]: under setting [1], the IC50 is 2.58 nM.

With `CC(C)Cn1c(=O)c(C(=O)NC2CC2)c(O)n2ncc(/C=C/C(=O)N3C4CCC3CC(F)(F)C4)c12` [Synthesis Example 719, (E)-N-Cyclopropyl-3-(3-(3,3-difluoro-8-azabicyclo[3.2.1]octan-8-yl)-3-oxoprop-1-en-1-yl)-7-hydroxy-4-isobutyl-5-oxo-4,5-dihydropyrazolo[1,5-a]pyrimidine-6-carboxamide], the IC50 under setting [2] was 0.77 nM.

As to `CC(C)Cn1c(=O)c(C(=O)NC2CC2)c(O)n2ncc(/C=C/C(=O)N3[C@H](C)COC[C@@H]3C)c12` [compound 557, N-Cyclopropyl-3-((E)-3-(cis-3,5-dimethylmorpholino)-3-oxoprop-1-en-1-yl)-7-hydroxy-4-isobutyl-5-oxo-4,5-dihydropyrazolo[1,5-a]pyrimidine-6-carboxamide], the IC50 under setting [1] was found to be 0.81 nM.

Consider `Cc1nn2c(O)c(C(=O)NC3CC3)c(=O)n(CC(C)C)c2c1/C=C/C(=O)N1CCC[C@@H]1C(C)(C)O` [compound 611, (R,E)-N-Cyclopropyl-7-hydroxy-3-(3-(2-(2-hydroxypropan-2-yl)pyrrolidin-1-yl)-3-oxoprop-1-en-1-yl)-4-isobutyl-2-methyl-5-oxo-4,5-dihydropyrazolo[1,5-a]pyrimidine-6-carboxamide], for which the IC50 under setting [1] came out at 1.22 nM.

Take `CC(C)Cn1c(=O)c(C(=O)NC2CC2)c(O)n2ncc(/C=C/C(=O)N3CCOC[C@@H]3C)c12` [compound 455, (S,E)-N-Cyclopropyl-7-hydroxy-4-isobutyl-3-(3-(3-methylmorpholino)-3-oxoprop-1-en-1-yl)-5-oxo-4,5-dihydropyrazolo[1,5-a]pyrimidine-6-carboxamide]: the IC50 under setting [1] was determined as 0.72 nM.

With `CC(C)Cn1c(=O)c(C(=O)NC2CC2)c(O)n2ncc(/C=C/C(=O)N3CCOC[C@H]3C(F)(F)F)c12` [compound 534, (S,E)-N-Cyclopropyl-7-hydroxy-4-isobutyl-5-oxo-3-(3-oxo-3-(3-(trifluoromethyl)morpholino)prop-1-en-1-yl)-4,5-dihydropyrazolo[1,5-a]pyrimidine-6-carboxamide], the IC50 under setting [1] turned out to be 0.87 nM.

Regarding `CC(C)Cn1c(=O)c(C(=O)NC2CC2)c(O)n2ncc(/C=C/C(=O)N3[C@H](C)CCC[C@@H]3C)c12` [compound 597, N-Cyclopropyl-3-((E)-3-(cis-2,6-dimethylpiperidin-1-yl)-3-oxoprop-1-en-1-yl)-7-hydroxy-4-isobutyl-5-oxo-4,5-dihydropyrazolo[1,5-a]pyrimidine-6-carboxamide], the IC50 under setting [1] worked out at 1.62 nM.

Regarding `CC(C)(C)Cn1c(=O)c(C(=O)NC2CC2)c(O)n2nc(-c3[nH]ncc3C(=O)N3CCC(F)(F)C3)cc12` [Synthesis Example 316, N-Cyclopropyl-2-(4-(3,3-difluoropyrrolidine-1-carbonyl)-1H-pyrazol-5-yl)-7-hydroxy-4-neopentyl-5-oxo-4,5-dihydropyrazolo[1,5-a]pyrimidine-6-carboxamide hydrochloride], the IC50 under setting [1] amounted to 0.9 nM.

For `Cc1nn2c(O)c(C(=O)NC3CC3)c(=O)n(CC(C)C)c2c1/C=C/C(=O)N1CCN(C2CC(F)(F)C2)C[C@H]1C` [Synthesis Example 697, (R,E)-N-Cyclopropyl-3-(3-(4-(3,3-difluorocyclobutyl)-2-methylpiperazin-1-yl)-3-oxoprop-1-en-1-yl)-7-hydroxy-4-isobutyl-2-methyl-5-oxo-4,5-dihydropyrazolo[1,5-a]pyrimidine-6-carboxamide], the IC50 under setting [2] was 1.22 nM.

In the case of `C[C@@H]1COCCN1C(=O)/C=C/c1cnn2c(O)c(C(=O)NC3CC3)c(=O)n(CC3(F)CC3)c12` [Synthesis Example 380, (R,E)-N-Cyclopropyl-4-((1-fluorocyclopropyl)methyl)-7-hydroxy-3-(3-(3-methylmorpholino)-3-oxoprop-1-en-1-yl)-5-oxo-4,5-dihydropyrazolo[1,5-a]pyrimidine-6-carboxamide], the IC50 under setting [1] amounted to 0.76 nM.

In the case of `CC(C)Cn1c(=O)c(C(=O)NC2CC2)c(O)n2ncc(/C=C/C(=O)N3CCN(CC4CC(F)(F)C4)C[C@H]3C)c12` [Synthesis Example 745, (R,E)-N-Cyclopropyl-3-(3-(4-((3,3-difluorocyclobutyl)methyl)-2-methylpiperazin-1-yl)-3-oxoprop-1-en-1-yl)-7-hydroxy-4-isobutyl-5-oxo-4,5-dihydropyrazolo[1,5-a]pyrimidine-6-carboxamide], the IC50 under setting [2] was 1.85 nM.

As to `Cc1nn2c(O)c(C(=O)NC3CC3)c(=O)n(CC(C)(C)C)c2c1/C=C/C(=O)N1CCOC[C@@H]1C` [Synthesis Example 625, (S,E)-N-Cyclopropyl-7-hydroxy-2-methyl-3-(3-(3-methylmorpholino)-3-oxoprop-1-en-1-yl)-4-neopentyl-5-oxo-4,5-dihydropyrazolo[1,5-a]pyrimidine-6-carboxamide], the IC50 under setting [1] is 1.05 nM.

`CC(C)Cn1c(=O)c(C(=O)NC2CC2)c(O)n2ncc(/C=C/C(=O)N3CC[C@@H](O)C3)c12` [compound 502, (R,E)-N-Cyclopropyl-7-hydroxy-3-(3-(3-hydroxypyrrolidin-1-yl)-3-oxoprop-1-en-1-yl)-4-isobutyl-5-oxo-4,5-dihydropyrazolo[1,5-a]pyrimidine-6-carboxamide]: the IC50 under setting [1] is 0.7 nM.

For the compound `CC(C)Cn1c(=O)c(C(=O)NC2CC2)c(O)n2ncc(C(=O)NCc3cnccn3)c12` [Synthesis Example 220, N6-Cyclopropyl-7-hydroxy-4-isobutyl-5-oxo-N3-(pyrazin-2-ylmethyl)-4,5-dihydropyrazolo[1,5-a]pyrimidine-3,6-dicarboxamide], the IC50 under setting [1] was determined as 0.79 nM.

For `NC(=O)c1cc2n(CC3CCC(F)(F)CC3)c(=O)c(C(=O)NC3CC3)c(O)n2n1` [Synthesis Example 276, N6-Cyclopropyl-4-((4,4-difluorocyclohexyl)methyl)-7-hydroxy-5-oxo-4,5-dihydropyrazolo[1,5-a]pyrimidine-2,6-dicarboxamide], the IC50 under setting [1] is 0.68 nM.

Take `Cc1nn2c(O)c(C(=O)NC3CC3)c(=O)n(CC(C)C)c2c1/C=C/C(=O)N1CCC(F)(F)C1` [compound 565, (E)-N-Cyclopropyl-3-(3-(3,3-difluoropyrrolidin-1-yl)-3-oxoprop-1-en-1-yl)-7-hydroxy-4-isobutyl-2-methyl-5-oxo-4,5-dihydropyrazolo[1,5-a]pyrimidine-6-carboxamide]: the IC50 under setting [1] is 0.93 nM.

In the case of `CCc1nn2c(O)c(C(=O)NC3CC3)c(=O)n(CC(C)C)c2c1/C=C/C(=O)N1CCC[C@@H]1C(C)(C)O` [Synthesis Example 654, (R,E)-N-Cyclopropyl-2-ethyl-7-hydroxy-3-(3-(2-(2-hydroxypropan-2-yl)pyrrolidin-1-yl)-3-oxoprop-1-en-1-yl)-4-isobutyl-5-oxo-4,5-dihydropyrazolo[1,5-a]pyrimidine-6-carboxamide], the IC50 under setting [1] was determined as 0.95 nM.

Consider `CC(C)Cn1c(=O)c(C(=O)NC2CC2)c(O)n2ncc(/C=C/C(=O)N3CC4C(C3)C4(F)F)c12` (stereo not drawn) [compound 511, (E)-N-Cyclopropyl-3-(3-(6,6-difluoro-3-azabicyclo[3.1.0]hexan-3-yl)-3-oxoprop-1-en-1-yl)-7-hydroxy-4-isobutyl-5-oxo-4,5-dihydropyrazolo[1,5-a]pyrimidine-6-carboxamide], for which the IC50 under setting [1] is 1.07 nM.

Regarding `CC(C)Cn1c(=O)c(C(=O)NC2CC2)c(O)n2ncc(/C=C/C(=O)N3CCC[C@@H]3c3cccnc3)c12` [Synthesis Example 748, (R,E)-N-Cyclopropyl-7-hydroxy-4-isobutyl-5-oxo-3-(3-oxo-3-(2-(pyridin-3-yl)pyrrolidin-1-yl)prop-1-en-1-yl)-4,5-dihydropyrazolo[1,5-a]pyrimidine-6-carboxamide], the IC50 under setting [2] was 1.01 nM.
